This is an account of results in ChEMBL document CHEMBL1134723, “Synthesis and evaluation of the sunflower derived trypsin inhibitor as a potent inhibitor of the type II transmembrane serine protease, matriptase” (Bioorg Med Chem Lett, 2001).

SMILES strings stand for the structures.

The target in this test is Prothrombin (Bos taurus, UniProt P00735). The experiment in a line: Compound was tested for inhibition of bovine Thrombin.

With `CC[C@H](C)[C@@H]1NC(=O)[C@@H]2CCCN2C(=O)[C@@H]2CCCN2C(=O)[C@H]([C@@H](C)CC)NC(=O)[C@H](CO)NC(=O)[C@H](CCCCN)NC(=O)[C@H]([C@@H](C)O)NC(=O)[C@@H]2CSSC[C@H](NC1=O)C(=O)N[C@@H](Cc1ccccc1)C(=O)N1CCC[C@@H]1C(=O)N[C@@H](CC(=O)O)C(=O)NCC(=O)N[C@@H](CCCN=C(N)N)C(=O)N2`, the Ki worked out at 5.05 µM.
